BindingDB's records for doi:10.1016/j.chembiol.2007.03.013 (Portland State University, 2007)

Key:
[1] = molecular target: T1, 3-oxoacyl-[acyl-carrier-protein] synthase 3 (Mycobacterium tuberculosis (strain CDC 1551 / Oshkosh), UniProt P9WNG2); test: FabH Enzyme Assay; details: pH 7; 37 °C
T1 sequence (P9WNG2 whole entry): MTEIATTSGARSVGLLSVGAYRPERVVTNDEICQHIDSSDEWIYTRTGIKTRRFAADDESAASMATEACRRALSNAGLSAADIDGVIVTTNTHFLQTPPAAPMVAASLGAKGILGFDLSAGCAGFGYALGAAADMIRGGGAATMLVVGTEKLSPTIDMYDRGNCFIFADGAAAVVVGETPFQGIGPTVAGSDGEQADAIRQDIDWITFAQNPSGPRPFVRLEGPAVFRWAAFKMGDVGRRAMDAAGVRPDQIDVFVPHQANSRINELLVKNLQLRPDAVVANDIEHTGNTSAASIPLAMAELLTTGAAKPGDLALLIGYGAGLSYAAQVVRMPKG
Protocol: (§1) Escherichia coli FabH assays were carried out using standard coupled trichloroacetic acid precipitation assay to determine the rate formation of radiolabeled 3-ketoacyl-ACP from malonyl-ACP. Mycobacterium tuberculosis FabH assay was done by sustituting malonyl-CoA for MACP.

[2] = molecular target: T2, 3-oxoacyl-[acyl-carrier-protein] synthase 3 (Escherichia coli, UniProt C3TDZ2); test: FabH Enzyme Assay; details: pH 7; 37 °C
T2 sequence (C3TDZ2 whole entry): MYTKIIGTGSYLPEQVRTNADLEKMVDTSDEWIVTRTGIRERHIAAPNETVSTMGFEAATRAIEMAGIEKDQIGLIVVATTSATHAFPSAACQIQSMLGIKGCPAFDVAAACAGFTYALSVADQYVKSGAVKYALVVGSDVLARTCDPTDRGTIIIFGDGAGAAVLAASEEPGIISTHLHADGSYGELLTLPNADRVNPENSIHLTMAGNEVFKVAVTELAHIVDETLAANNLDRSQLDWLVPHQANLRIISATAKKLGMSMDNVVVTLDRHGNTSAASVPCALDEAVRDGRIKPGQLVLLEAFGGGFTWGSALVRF
Protocol: as §1

Structure (SMILES) | IC50 [1] | IC50 [2]
CCCCSSCCNC(=O)CCNC(=O)C(O)C(C)(C)OP(=O)(O)OP(=O)(O)OCC1OC(n2cnc3c(N)ncnc32)C(O)C1OP(=O)(O)O (stereo not drawn) [Butyl-CoA disulfide 2] | > 300 µM | > 300 µM
CCCCCCCCCCSSCCNC(=O)CCNC(=O)C(O)C(C)(C)OP(=O)(O)OP(=O)(O)OCC1OC(n2cnc3c(N)ncnc32)C(O)C1OP(=O)(O)O (stereo not drawn) [Decyl-CoA disulfide 5] | 1.2 µM | > 300 µM
CSSCCNC(=O)CCNC(=O)C(O)C(C)(C)OP(=O)(O)OP(=O)(O)OCC1OC(n2cnc3c(N)ncnc32)C(O)C1OP(=O)(O)O (stereo not drawn) [Methyl-CoA disulfide 1] | > 300 µM | 57.1 µM
CCCCCCCCSSCCNC(=O)CCNC(=O)C(O)C(C)(C)OP(=O)(O)OP(=O)(O)OCC1OC(n2cnc3c(N)ncnc32)C(O)C1OP(=O)(O)O (stereo not drawn) [Octyl-CoA disulfide 4] | 30.1 µM | > 300 µM
